According to patent publication US5366966A, “Compound UCE6” (Kyowa Hakko Kogyo Co., Ltd., priority 1992, dated 1994):

Assays:
[1] = Solubility; type: physicochemical
[2] = tested on: HeLaS3 cells; experiment: Inhibition on the Growth of HeLaS3 Cells (Neutral Red staining); type: cell-based; conditions: Homo sapiens, HeLa S3, 72 hours at 37° C., absorbance at 550 nm, read-out: IC50 (the concentration of the test compound capable of inhibiting the growth of the cells at a ratio of 50%)
Description: (A) Inhibition on the Growth of HeLaS3 Cells
0.1 ml portions of a 3×10^4 cell/ml suspension of HeLaS3 cells [American Type Culture Collection (ATCC) CCL2.2]. in Minimum Essential Medium (MEM) medium (mfd. by Nissui Seiyaku) containing 10% of calf fetal serum and 2 mM of glutamine (hereinafter referred to as the medium A) were pipetted into a 96-well microtiter plate. 0.05 ml of the test compound optionally diluted with the medium A is added to each well, followed by incubating in a carbon dioxide gas incubator at 37° C. for 72 hours. After removing supernatant the culture 0.1 ml of the medium A containing 0.02% of Neutral Red is added to the residue. The cells are cultivated in the carbon dioxide gas incubator at 37° C. for additional one hour to thereby stain the cells. After removing the supernatant of culture, the residue was washed with saline once. The pigment is extracted with 0.001 N hydrochloric acid/30% ethanol and the absorbance at 550 nm is measured with a microplate reader. Then IC50 (the concentration of the test compound capable of inhibiting the growth of the cells at a ratio of 50%) is calculated on the basis of the comparison between the absorbance of untreated cells and that of the test compound-treated cells (at various concentration of the test compound).

Cc1c(O)cc2c(c1O)C(=O)c1c(cc3cc(O)cc(CC(=O)CC(C)O)c3c1O)C2=O (stereo not drawn) [UCE6]
Solubility ([1]; in dimethylsulfoxide (DMSO), N,N-dimethylformamide and pyridine): soluble
Solubility ([1]; in water, ethanol, methanol, ethyl acetate and chloroform): hardly soluble
IC50 [2]: 18 nM
